Test results taken from PubChem BioAssay AID2060892 (Molecular Pharmacology Branch, DTP, NCI, 2025).

Tested on: HOP-62 complex spheroids with HUVEC/MSC, viability
Test: Anticancer human tumor HOP-62 cell line growth inhibition [RAS];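 further: spheroids exposed to agents for seven days before readout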;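 on viability, T/C: 100% = DMSO vehicle control viability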
Details: for IC50: curve of first compound; for viability, T/C: stronger effect = lower value
Text: RAS pathway inhibitors in Combinations in Complex Spheroids
A high-throughput screen of multi-cell type tumor spheroids was designed to identify active combinations of RAS pathway inhibitors and targeted small molecules. Complex spheroids include a stromal component modeled by human endothelial cells (HUVEC) and fibroblasts modeled by human mesenchymal stem cells (MSCs). The concentration ranges selected for each drug and investigational agent were based upon clinically achievable concentrations if the clinical Cmax of the agent was known.
Compounds. The drugs and investigational agents: abemaciclib (NSC768073), cobimetinib (NSC768068), divarasib (GDC6063, NSC841802), docetaxel (NSC628503), GDC-1971 (RLY-1971, NSC841576), gemcitabine (NSC613327), inavolisib (NSC800729), ipatasertib (NSC767898), KB-0742 (NSC834161), MRTX-1133 (NSC836407), osimertinib (NSC779217), RMC-4630 (NSC839698), RMC-6236 (NSC851965), RMC-6291 (NSC852671), Ro-3306 (NSC812927), sapanisertib (NSC764658), SN-38 (NSC673596), staurosporine (NSC755774), SY5609 (NSC837396), and tovorafenib (DAY101, NSC766906), were obtained from the National Cancer Institute (NCI) Developmental Therapeutics Program Chemical Repository. The FDA-approved anticancer drug set is available from the NCI Developmental Therapeutics Program. […] The stock solutions were prepared in dimethyl sulfoxide (DMSO, Sigma-Aldrich, St. Louis, MO, cat. D2650) at 800-fold the tested concentration and stored at -70 degrees C prior to their use. All drugs and investigational agents were tested over a range starting from a high concentration at or near the clinical Cmax and decreasing in half-log increments. If the clinical Cmax for an agent had not been determined, the highest concentration tested was 10 microM.
Cell Culture. All cells were maintained in an incubator at 37 degrees C and 5% CO2 with 95% humidity. The PDC lines were cultured according to standard operating procedures established by the NCI PDMR. All PDCs were thawed and cultured in Matrigel-coated flasks prepared with a working solution of 1X Ham's F-12 nutrient mix, without supplementation (Invitrogen, Waltham, MA, cat. 11765054), 100 U/mL penicillin-streptomycin (Invitrogen, cat. 15140122), and 2.5% Matrigel (Corning Inc., Corning, NY, cat. 354248) for the first three passages. The 362531-283-R-J2-PDC and 782815-120-R-J1-PDC lines were cultured in 6C/Colon 1B media, which includes advanced DMEM/F-12 (Thermo Fisher Scientific, cat. 12634028), 10 mM HEPES (Thermo Fisher Scientific, cat. 15630080), 1X GlutaMAX supplement (Thermo Fisher Scientific, cat. 35050061), 0.1 mg/mL primocin (InvivoGen, San Diego, CA, cat. ant-pm-2), 10% defined fetal bovine serum, heat inactivated (HyClone Laboratories Inc., Logan, UT, cat. SH30070.03HI), 50% L-WRN conditioned media (ATCC, cat. CRL-3276), 1.25 mM N-Acetyl-L-cysteine (Sigma-Aldrich, cat. A9165), 10 mM nicotinamide (Sigma-Aldrich, cat. N0636), 1X B-27 supplement (Thermo Fisher Scientific, cat. 17504044), 1X N-2 supplement (Thermo Fisher Scientific, cat. 17502048), 50 ng/mL human EGF (Thermo Fisher Scientific, cat. PHG0311), and 10 microM Y-27632 dihydrochloride (Tocris Bioscience, cat. 1254). The K12877-001-R-J1-PDC line was cultured in 6I media, which includes all 6C/Colon 1B media plus 10 ng/mL human FGF-10 (PeproTech, cat. 100-26), 1 ng/mL human FGF-2 (PeproTech, cat. 100-18B), 1 µM prostaglandin E2 (Tocris Bioscience, cat. 2296), […] hydrocortisone (Sigma-Aldrich, cat. H4001), and […] bovine insulin (Sigma-Aldrich, cat. I6634). The K86415-001-R-J1-PDC line was cultured in 6D media, which includes all 6C/Colon 1B media components minus the L-WRN conditioned media. The 485176-168-R4-J1-PDC was cultured in PANC media, which includes all 6C/Colon 1B media plus 100 ng/mL human FGF-10 (PeproTech, cat. 100-26), 500 nM SB-431542 (Selleckchem, cat. S1067), and 10 nM gastrin (Tocris Bioscience, cat. 3006). […]

[1] = second compound 0.00316 µM, first compound 0.0316 µM
[2] = second compound 0.00316 µM, first compound 0.1 µM
[3] = second compound 0.00316 µM, first compound 0.316 µM
[4] = second compound 0.00316 µM, first compound 1 µM
[5] = second compound 0.01 µM, first compound 0.0316 µM
[6] = second compound 0.01 µM, first compound 0.1 µM
[7] = second compound 0.01 µM, first compound 0.316 µM
[8] = second compound 0.01 µM, first compound 1 µM
[9] = second compound 0.0316 µM, first compound 0.0316 µM
[10] = second compound 0.0316 µM, first compound 0.1 µM
[11] = second compound 0.0316 µM, first compound 0.316 µM
[12] = second compound 0.0316 µM, first compound 1 µM
[13] = second compound 0.1 µM, first compound 0.0316 µM
[14] = second compound 0.1 µM, first compound 0.1 µM
[15] = second compound 0.1 µM, first compound 0.316 µM
[16] = second compound 0.1 µM, first compound 1 µM
[17] = second compound 0.316 µM, first compound 0.0316 µM
[18] = second compound 0.316 µM, first compound 0.1 µM
[19] = second compound 0.316 µM, first compound 0.316 µM
[20] = second compound 0.316 µM, first compound 1 µM
[21] = second compound 1 µM, first compound 0.0316 µM
[22] = second compound 1 µM, first compound 0.1 µM
[23] = second compound 1 µM, first compound 0.316 µM
[24] = second compound 1 µM, first compound 1 µM

How did the IC50 (second compound 0.00316 µM) turn out when `CCC(CC)c1cc(NC2CCC(N)C2)n2nccc2n1` (centres undefined) + C=CC(=O)N1CCN(c2nc(OCC3CCCN3C)nc3c(F)c(-c4nc(N)cc(C)c4C(F)(F)F)c(Cl)cc23)C(C)C1 was run?
Its IC50 is 1430 nM.

What about the IC50 (second compound 0.01 µM) of the same compound?
The IC50 was 1320 nM.

And the IC50 (second compound 0.0316 µM)?
Its IC50 is 1450 nM.

And the IC50 (second compound 0.1 µM)?
The IC50 was 1430 nM.

What about the IC50 (second compound 0.316 µM) of the same compound?
The IC50 was 1360 nM.

What about the IC50 (second compound 1 µM) of the same compound?
Its IC50 is 1380 nM.

What about the viability, T/C [1] of the same compound?
The viability, T/C was 82.5%.

And the viability, T/C [2]?
The viability, T/C was 79.4%.

What about the viability, T/C [3] of the same compound?
The viability, T/C was 88.6%.

And the viability, T/C [4]?
Its viability, T/C is 71.8%.

And the viability, T/C (second compound 0.00316 µM, first compound 3.16 µM)?
The viability, T/C was 2.08%.

And the viability, T/C (second compound 0.00316 µM, first compound 10 µM)?
Its viability, T/C is 1.07%.

What about the viability, T/C [5] of the same compound?
Its viability, T/C is 77.7%.

And the viability, T/C [6]?
Its viability, T/C is 69.6%.

And the viability, T/C [7]?
Its viability, T/C is 70.3%.

And the viability, T/C [8]?
The viability, T/C was 65.5%.

And the viability, T/C (second compound 0.01 µM, first compound 3.16 µM)?
The viability, T/C was 1.41%.

And the viability, T/C (second compound 0.01 µM, first compound 10 µM)?
The viability, T/C was 0.46%.

What about the viability, T/C [9] of the same compound?
Its viability, T/C is 75.2%.

And the viability, T/C [10]?
Its viability, T/C is 68.4%.

What about the viability, T/C [11] of the same compound?
The viability, T/C was 76.5%.

What about the viability, T/C [12] of the same compound?
Its viability, T/C is 73.2%.

And the viability, T/C (second compound 0.0316 µM, first compound 3.16 µM)?
Its viability, T/C is 0.98%.

And the viability, T/C (second compound 0.0316 µM, first compound 10 µM)?
Its viability, T/C is 0.34%.

And the viability, T/C [13]?
The viability, T/C was 66.2%.

What about the viability, T/C [14] of the same compound?
The viability, T/C was 70.5%.

What about the viability, T/C [15] of the same compound?
The viability, T/C was 74.6%.

And the viability, T/C [16]?
The viability, T/C was 73.5%.

And the viability, T/C (second compound 0.1 µM, first compound 3.16 µM)?
Its viability, T/C is 2.62%.

What about the viability, T/C (second compound 0.1 µM, first compound 10 µM) of the same compound?
The viability, T/C was 0.16%.

And the viability, T/C [17]?
Its viability, T/C is 70.7%.

What about the viability, T/C [18] of the same compound?
Its viability, T/C is 68.9%.

What about the viability, T/C [19] of the same compound?
The viability, T/C was 71.4%.

And the viability, T/C [20]?
Its viability, T/C is 68.2%.

What about the viability, T/C (second compound 0.316 µM, first compound 3.16 µM) of the same compound?
Its viability, T/C is 0.89%.

And the viability, T/C (second compound 0.316 µM, first compound 10 µM)?
The viability, T/C was 0.5%.

What about the viability, T/C [21] of the same compound?
The viability, T/C was 62.5%.

What about the viability, T/C [22] of the same compound?
The viability, T/C was 69.9%.

What about the viability, T/C [23] of the same compound?
Its viability, T/C is 70.9%.

What about the viability, T/C [24] of the same compound?
The viability, T/C was 73.4%.

And the viability, T/C (second compound 1 µM, first compound 3.16 µM)?
The viability, T/C was 1.28%.

What about the viability, T/C (second compound 1 µM, first compound 10 µM) of the same compound?
Its viability, T/C is 0.62%.

What does the source list for `CCN1CCN(Cc2ccc(Nc3ncc(F)c(-c4cc(F)c5nc(C)n(C(C)C)c5c4)n3)nc2)CC1` + C=CC(=O)N1CCN(c2nc(OCC3CCCN3C)nc3c(F)c(-c4nc(N)cc(C)c4C(F)(F)F)c(Cl)cc23)C(C)C1?
IC50 (second compound 0.00316 µM): > 1000 nM; IC50 (second compound 0.01 µM): > 1000 nM; IC50 (second compound 0.0316 µM): 110 nM; IC50 (second compound 0.1 µM): > 1000 nM; IC50 (second compound 0.316 µM): 613 nM; IC50 (second compound 1 µM): > 1000 nM; viability, T/C (second compound 0.00316 µM, first compound 0.00316 µM): 87.7%; viability, T/C (second compound 0.00316 µM, first compound 0.01 µM): 84.1%; viability, T/C [1]: 69.2%; viability, T/C [2]: 73%; viability, T/C [3]: 64.8%; viability, T/C [4]: 55.5%; viability, T/C (second compound 0.01 µM, first compound 0.00316 µM): 71.5%; viability, T/C (second compound 0.01 µM, first compound 0.01 µM): 64.3%; viability, T/C [5]: 62.5%; viability, T/C [6]: 55.9%; viability, T/C [7]: 57.3%; viability, T/C [8]: 48.8%; viability, T/C (second compound 0.0316 µM, first compound 0.00316 µM): 72.2%; viability, T/C (second compound 0.0316 µM, first compound 0.01 µM): 74.3%; viability, T/C [9]: 59%; viability, T/C [10]: 52.8%; viability, T/C [11]: 47.6%; viability, T/C [12]: 46.9%; viability, T/C (second compound 0.1 µM, first compound 0.00316 µM): 69.7%; viability, T/C (second compound 0.1 µM, first compound 0.01 µM): 57.6%; viability, T/C [13]: 59.9%; viability, T/C [14]: 51.3%; viability, T/C [15]: 68.2%; viability, T/C [16]: 45.2%; viability, T/C (second compound 0.316 µM, first compound 0.00316 µM): 69%; viability, T/C (second compound 0.316 µM, first compound 0.01 µM): 70.6%; viability, T/C [17]: 68.8%; viability, T/C [18]: 50.2%; viability, T/C [19]: 58%; viability, T/C [20]: 46.8%; viability, T/C (second compound 1 µM, first compound 0.00316 µM): 66.7%; viability, T/C (second compound 1 µM, first compound 0.01 µM): 58.6%; viability, T/C [21]: 50.6%; viability, T/C [22]: 59.9%; viability, T/C [23]: 54.7%; viability, T/C [24]: 47.1%
